The results in this text go back to patent US6806229B1, “Herbicidally active pyridine sulfonyl urea derivatives” (LG Life Sciences, priority 2003, dated 2004).

Read-outs that look alike come from different tables or passages of the source.

For one data set, the system named is Oryza sativa. In words: Phytotoxicity to rice (direct-seeded and transplanted) in paddy condition, greenhouse pot test. Format: in vivo. The settings on record: visual rating after two weeks; for Phytotoxicity, Oryza sativa, Seed: direct-seeded rice, treated 5 days after sowing; for Phytotoxicity, Oryza sativa, Transplanted: transplanted rice seedlings, treated 5 days after transplanting. The text has this:
(§1) Pots having a surface area of 150 cm^2 were filled with a small amount of fertilizer and sterilized paddy field soil in a muddy state with a depth of 5 cm. Five (5) seeds of pre-germinated rice were directly sown on the soil surface and three (3) rice seedlings (2˜3 leaves) prepared in advance were transplanted in a depth of 2 cm in each pot. In another pot, seeds of barnyardgrass were sown and incorporated into the surface layer of soil. After sowing and transplanting of rice plant and sowing of barnyardgrass, the pots were flooded with water 3 cm deep and kept in a greenhouse. The rice plant was treated with the chemicals 5 days after sowing or transplanting, and barnyardgrass was treated with the chemicals at the pre-emergence (5 days after from sowing) and post-emergence stage (at the three-leaf stage, usually after 15 days from sowing).
(§2) Suitable herbicidal compositions were prepared by mixing and dissolving 1 part by weight of the active compound with 5 parts by weight of acetone and 1 part by weight of alkylaryl polyglycolether as an emulsifier and then diluting with water to the predetermined concentration. Application was made by dropping the herbicide solutions onto the water surface of the pots.

For the next data set, the system named is Echinochloa crus-galli. In words: Herbicidal activity to barnyardgrass in paddy condition, pre- and post-emergence, greenhouse pot test. Format: in vivo. The following applies: Echinochloa crus-galli, 336 h, visual rating after two weeks.
Text: as §1, §2

Setting [1] is: 80 g/ha, 0 = none, 100 = complete death.
Where [2] appears, read: post-emergence, three-leaf stage, read-out: Herbicidal activity, Echinochloa crus-galli, Post-emergence (3-Leaf stage).
Where [3] appears, read: pre-emergence (5 days after sowing), read-out: Herbicidal activity, Echinochloa crus-galli, Pre-emergence.
[4] abbreviates: pre-emergence (5 days after sowing), 0 = no activity, 100 = complete death, read-out: Herbicidal activity, Echinochloa crus-galli, Pre-emergence.

For the compound `COc1cc(OC)nc(NC(=O)NS(=O)(=O)c2cccnc2[C@@H](OC(=O)CO)[C@H](C)F)n1` [Com. 1], the “Phytotoxicity, Oryza sativa, Seed” value in the data set on Oryza sativa (10 g/ha) turned out to be 0%; with Oryza sativa (20 g/ha), 10%; in the data set on Oryza sativa (40 g/ha) it was 30%; in the data set on Oryza sativa (setting [1]), 30%. Further, the “Phytotoxicity, Oryza sativa, Transplanted” value in the data set with Oryza sativa (10 g/ha) is given as 0%; in the data set with Oryza sativa (20 g/ha), 10%; in the data set with Oryza sativa (40 g/ha), 10%; in the data set with Oryza sativa (80 g/ha), 20%. Further, the pest or weed control at 5 g/ha in the data set on Echinochloa crus-galli (setting [2]) is 60%; with Echinochloa crus-galli (setting [3]), 50%. Further, the pest or weed control at 10 g/ha with Echinochloa crus-galli (setting [2]) and with Echinochloa crus-galli (setting [3]) was 80% each time. The pest or weed control at 20 g/ha in the data set on Echinochloa crus-galli (setting [2]) and in the data set with Echinochloa crus-galli (setting [3]) was 90% throughout. The pest or weed control at 30 g/ha with Echinochloa crus-galli (setting [2]) was found to be 100%; in the data set on Echinochloa crus-galli (setting [4]), 90%.

`COc1cc(OC)nc(NC(=O)NS(=O)(=O)c2ccccc2[C@@H](OC(C)=O)[C@H](C)F)n1` [Standard Compound B, reference compound]: the “Phytotoxicity, Oryza sativa, Seed” value was 30% in the data set with Oryza sativa (10 g/ha), 40% in the data set with Oryza sativa (20 g/ha), 50% in the data set with Oryza sativa (40 g/ha) and 70% with Oryza sativa (setting [1]). In addition, the “Phytotoxicity, Oryza sativa, Transplanted” value with Oryza sativa (10 g/ha) stood at 20%; with Oryza sativa (20 g/ha), 20%; in the data set with Oryza sativa (40 g/ha) it was 40%; in the data set on Oryza sativa (80 g/ha), 60%. For the same compound, the pest or weed control at 5 g/ha with Echinochloa crus-galli (setting [2]) and with Echinochloa crus-galli (setting [3]) was 50% in each case. The values for the pest or weed control at 10 g/ha in the data set on Echinochloa crus-galli (setting [2]) and in the data set with Echinochloa crus-galli (setting [3]) were 90% and 100%, respectively. The pest or weed control at 20 g/ha in the data set on Echinochloa crus-galli (setting [2]) came out at 90%; with Echinochloa crus-galli (setting [3]) it was 100%. Besides, the pest or weed control at 30 g/ha with Echinochloa crus-galli (setting [2]) and in the data set on Echinochloa crus-galli (setting [4]) was 100% throughout.
